Test: photoluminescence quantum yield (fraction); solvent given as SMILES

## O=S1(=O)c2ccccc2-c2cc(-c3c4ccccc4cc4ccccc34)ccc21
In C1CCCCC1
  photoluminescence quantum yield: 0.36
In CC#N
  photoluminescence quantum yield: 0.14
In ClCCl
  photoluminescence quantum yield: 0.24

## O=S1(=O)c2ccc(-c3ccc(N(c4ccccc4)c4ccccc4)cc3)cc2C2(c3ccccc3-c3ccccc32)c2cc(-c3ccc(N(c4ccccc4)c4ccccc4)cc3)ccc21
In ClCCl
  photoluminescence quantum yield: 0.89

## COC(=O)c1nc2c(N(C)C)nc(N(C)C)nc2n1Cc1ccccc1
In C1COCCO1
  photoluminescence quantum yield: 0.95
In CC#N
  photoluminescence quantum yield: 0.86
In CO
  photoluminescence quantum yield: 0.66
In ClCCl
  photoluminescence quantum yield: 0.9

## CN(C)c1ccc(/C=C/c2cccnn2)cc1
In ClCCl
  photoluminescence quantum yield: 0.02

## COC(=O)/C=C/C=C/C1=CC2=C(c3c(C)cc(C)cc3C)c3cc(/C=C/C=C/C(=O)OC)cn3[B-](F)(F)[N+]2=C1
In ClCCl
  photoluminescence quantum yield: 0.054

## CC(C)(C)c1ccc2c(c1)c1cc(C(C)(C)C)ccc1n2-c1cccc2c1Oc1c(-c3nc(-c4ccccc4)nc(-c4ccccc4)n3)cccc1C2(C)C
In Cc1ccccc1
  photoluminescence quantum yield: 0.06

## CC(C)[Si](C#Cc1ccc(C#C[Si](C(C)C)(C(C)C)C(C)C)c2nc3c(ccc4cc5ccccc5cc43)nc12)(C(C)C)C(C)C
In CCCCCC
  photoluminescence quantum yield: 0.37

## COc1ccc(-c2cc(-c3ccccc3)c3n2[B-](F)(F)[N+]2=C4C=NC=CN4[B-](F)(F)[N+]2=C3)cc1
In ClCCl
  photoluminescence quantum yield: 0.46

## CCOC(=O)c1ccc2c(c1)[nH]c1c3ccc(C(=O)OCC)cc3sc21
In CCCO
  photoluminescence quantum yield: 0.45

## O=C1c2cccc3cc(C#CC#Cc4cc5c6c(cccc6c4)C(=O)N(c4ccccc4)C5=O)cc(c23)C(=O)N1c1ccccc1
In ClCCl
  photoluminescence quantum yield: 0.79

## COCCOc1cc(C=O)c(OCCOC)cc1C=O
In CC(C)(C)O
  photoluminescence quantum yield: 0.11
In CC(C)CO
  photoluminescence quantum yield: 0.1
In CC(C)O
  photoluminescence quantum yield: 0.1
In CCCCO
  photoluminescence quantum yield: 0.17
In CCCO
  photoluminescence quantum yield: 0.19
In CCO
  photoluminescence quantum yield: 0.18
In CN(C)C=O
  photoluminescence quantum yield: 0.03
In CNC=O
  photoluminescence quantum yield: 0.08
In CO
  photoluminescence quantum yield: 0.22
In NC=O
  photoluminescence quantum yield: 0.3
In O
  photoluminescence quantum yield: 0.54

## C=C[C@]12CC[C@H](CC1)N=N2
In CC#N
  photoluminescence quantum yield: 0.0009

## c1ccc2sc(-c3ccc(-c4nnc(-c5ccc(-c6nnc(-c7ccc(-c8cc9ccccc9s8)s7)o6)cc5)o4)s3)cc2c1
In ClC(Cl)Cl
  photoluminescence quantum yield: 0.61

## COc1ccc(C2=CC(c3ccccc3)=[N+]3C2=Nc2c(-c4ccc(OC)cc4)cc(-c4ccccc4)n2[B-]3(F)F)cc1
In Cc1ccccc1
  photoluminescence quantum yield: 0.24
In ClC(Cl)Cl
  photoluminescence quantum yield: 0.23

## CCn1c2ccccc2c2cc(-c3cc(-c4ccc5c(c4)c4ccccc4n5CC)nc(S(C)(=O)=O)n3)ccc21
In C1CCOC1
  photoluminescence quantum yield: 0.61
In CCOC(C)=O
  photoluminescence quantum yield: 0.76
In CN(C)C=O
  photoluminescence quantum yield: 0.6
In Cc1ccccc1
  photoluminescence quantum yield: 0.77
In ClCCl
  photoluminescence quantum yield: 0.72

## COc1ccc(C2=Nc3sc(-c4ccccc4)n[n+]3[B-](F)(F)O2)cc1
In Cc1ccccc1
  photoluminescence quantum yield: 0.29

## C=Cc1cccc(OC)c1
In C1CCCCC1
  photoluminescence quantum yield: 0.32
In CC#N
  photoluminescence quantum yield: 0.28

## COc1ccc(C2=C(c3ccc([N+](=O)[O-])cc3)C(c3ccccc3)=[N+]3C2=Nc2c(-c4ccc(OC)cc4)c(-c4ccc([N+](=O)[O-])cc4)c(-c4ccccc4)n2[B-]3(F)F)cc1
In Cc1ccccc1
  photoluminescence quantum yield: 0.05

## COc1ccc2c(-c3nc(-c4ccccc4Cl)no3)cc(=O)oc2c1
In CCO
  photoluminescence quantum yield: 0.39
In ClC(Cl)Cl
  photoluminescence quantum yield: 0.19

## COc1ccc(-c2cc(B(c3c(C)cc(C)cc3C)c3c(C)cc(C)cc3C)c(-c3sc(-c4ccc(OC)cc4)cc3P(=O)(c3ccccc3)c3ccccc3)s2)cc1
In CO
  photoluminescence quantum yield: 0.55

## Cc1cnc(NC(=O)C2=C([O-])c3ccccc3S(=O)(=O)N2C)s1
In CC#N
  photoluminescence quantum yield: 0.00144
In CCCCO
  photoluminescence quantum yield: 0.0114
In CCCO
  photoluminescence quantum yield: 0.00864
In CCO
  photoluminescence quantum yield: 0.00427
In CO
  photoluminescence quantum yield: 0.00252

## CCC1=C(C)C2=Cc3c4ccccc4c4n3[B-](c3ccncc3)(Oc3ccccc3-4)[N+]2=C1C (centres undefined)
In CC#N
  photoluminescence quantum yield: 0.73
In CCCCCC
  photoluminescence quantum yield: 0.78
In Cc1ccccc1
  photoluminescence quantum yield: 0.7
In ClCCl
  photoluminescence quantum yield: 0.7

## C[n+]1ccc(/C=C/c2ccc(N(c3ccccc3)c3ccc(/C=C/c4cc[n+](C)cn4)cc3)cc2)nc1
In OCC(O)CO
  photoluminescence quantum yield: 0.026

## c1csc(-c2ccc(-c3cccs3)c3nsnc23)c1
In ClC(Cl)Cl
  photoluminescence quantum yield: 0.59

## COc1ccc2cc3c(C)cc(=O)oc3cc2c1
In CC#N
  photoluminescence quantum yield: 0.0071
In CCCCCC
  photoluminescence quantum yield: 0
In CCO
  photoluminescence quantum yield: 0.13
In CCOC(C)=O
  photoluminescence quantum yield: 0.0006
In CO
  photoluminescence quantum yield: 0.21
In ClC(Cl)Cl
  photoluminescence quantum yield: 0.011
In OCC(F)(F)F
  photoluminescence quantum yield: 0.33

## O=C(O)c1ccccc1
In O
  photoluminescence quantum yield: 0.001

## Cc1cc(C)c(C2=C3C=C(/C=C/C(=O)OC(C)(C)C)C=[N+]3[B-](F)(F)n3cccc32)c(C)c1
In ClCCl
  photoluminescence quantum yield: 0.3

## COc1ccc(-c2cc3c(ccc4sccc43)s2)cc1
In ClCCl
  photoluminescence quantum yield: 0.55

## COC(=O)c1cc(=O)n(C)c2cc(-c3cc(OC)c(OC)c(OC)c3)sc12
In CC#N
  photoluminescence quantum yield: 0.38
In ClCCl
  photoluminescence quantum yield: 0.53

## CC(=O)c1ccc(-c2cnc3nn4ccccc4c3n2)cc1
In C1CCOC1
  photoluminescence quantum yield: 0.5

## CCOC(=O)c1cc(C(=O)OCC)c2ccc(C)cc2n1
In CCO
  photoluminescence quantum yield: 0.019

## COc1ccc(C)cc1C1=C2C=CC(=[N+](C)C)C=C2[Si](C)(C)c2cc(N(C)C)ccc21
In O
  photoluminescence quantum yield: 0.28

## c1ccc2cc(-c3c4ccccc4c(-c4ccc(-n5c6ccccc6c6ccccc65)cc4)c4ccccc34)ccc2c1
In ClCCl
  photoluminescence quantum yield: 0.76

## CC1=[N+]2C(=Cc3c4c(cn3[B-]2(F)F)-c2nc-4c(-c3ccccc3)c3ccc([nH]3)c(-c3ccccc3)c3nc(c(-c4ccccc4)c4ccc([nH]4)c2-c2ccccc2)C=C3)C(C)C1 (centres undefined)
In ClCCl
  photoluminescence quantum yield: 0.04

## CN1/C(=C/C=C(/C=C/C2=[N+](C)c3ccccc3C2(C)C)c2ccccc2)C(C)(C)c2ccccc21
In CCO
  photoluminescence quantum yield: 0.11
In CO
  photoluminescence quantum yield: 0.09
In CS(C)=O
  photoluminescence quantum yield: 0.29

## COc1ccc(C2=[N+]3C(=Nc4c(-c5cc(OC)c(OC)c(OC)c5)c(Br)c(-c5ccc(OC)cc5)n4[B-]3(F)F)C(c3cc(OC)c(OC)c(OC)c3)=C2Br)cc1
In Cc1ccccc1
  photoluminescence quantum yield: 0.002

## COC(=O)C[C@H](NC(=O)[C@H](Cc1c[nH]c2ccccc12)NC(=O)OC(C)(C)C)C(=O)OC
In CC#N
  photoluminescence quantum yield: 0.36
In CCOC(C)=O
  photoluminescence quantum yield: 0.39
In CO
  photoluminescence quantum yield: 0.27

## CCn1c2c(-c3ccc(-c4cccs4)s3)cc(C(C)(C)C)cc2c2cc(C(C)(C)C)cc(-c3ccc(-c4cccs4)s3)c21
In ClCCl
  photoluminescence quantum yield: 0.106

## CN(c1ccccc1)c1ccc(/C=C/c2ccccc2)cc1
In CC#N
  photoluminescence quantum yield: 0.31
In CCCCCC
  photoluminescence quantum yield: 0.64

## CCCCCCNC(=O)c1sc(-c2ccc(-c3cc(-c4ccc(C(C)(C)C)cc4)c(C(=O)NCCCCCC)s3)s2)cc1-c1ccc(C(C)(C)C)cc1
In ClCCl
  photoluminescence quantum yield: 0.31

## Cc1cc(C)c(B(c2ccc(N3c4ccccc4Oc4ccccc43)cc2)c2c(C)cc(C)cc2C)c(C)c1
In Cc1ccccc1
  photoluminescence quantum yield: 0.87

## CCOC(=O)/C=C/C1=[N+]2C(=C(c3c(C)cc(C)cc3C)c3ccc(/C=C/C(=O)OCC)n3[B-]2(F)F)C=C1
In ClCCl
  photoluminescence quantum yield: 0.98

## COc1cccc(C2=C(c3ccc(C(C)(C)C)cc3)C(c3ccc(C(C)(C)C)cc3)=[N+]3C2=C(c2ccccc2)c2c(-c4cccc(OC)c4)c(-c4ccc(C(C)(C)C)cc4)c(-c4ccc(C(C)(C)C)cc4)n2[B-]3(F)F)c1
In C1CCCCC1
  photoluminescence quantum yield: 0.44
In C1CCOC1
  photoluminescence quantum yield: 0.45
In CC#N
  photoluminescence quantum yield: 0.38
In Cc1ccccc1
  photoluminescence quantum yield: 0.54
In ClCCl
  photoluminescence quantum yield: 0.58

## CCOC(=O)COc1ccc(/C=C/C2=C3c4ccccc4C(c4[nH]c(C)cc4C)=[N+]3[B-](F)(F)n3c(C)cc(C)c32)cc1
In C1CCOC1
  photoluminescence quantum yield: 0.012
In CC#N
  photoluminescence quantum yield: 0.005
In CCCCCC
  photoluminescence quantum yield: 0.013
In CO
  photoluminescence quantum yield: 0.002
In Cc1ccccc1
  photoluminescence quantum yield: 0.012
In ClCCl
  photoluminescence quantum yield: 0.014

## CCCCCCCCCCCCCCCCCCOC(=O)/C=C/C1=CC2=C(c3c(C)cc(C)cc3C)c3cccn3[B-](F)(F)[N+]2=C1
In ClCCl
  photoluminescence quantum yield: 0.34

## Cc1ccc2nc(-c3cccc4nc(C)[nH]c(=O)c34)oc2c1
In CN(C)C=O
  photoluminescence quantum yield: 0.076

## N#Cc1ccc(C#Cc2ccccc2C#N)cc1
In ClC(Cl)Cl
  photoluminescence quantum yield: 0.452

## C(=C\c1nc(/C=C/c2ccc(N(c3ccccc3)c3ccccc3)cc2)cc(/C=C/c2ccc(N(c3ccccc3)c3ccccc3)cc2)n1)/c1ccccc1
In ClCCl
  photoluminescence quantum yield: 0.78

## O=C1OC(=O)C2=C1S[C@]13C2=C[C@H](c2ccccc21)c1ccccc13
In ClCCl
  photoluminescence quantum yield: 0.95

Source: the Deep4Chem optical property database
